# Measurements as given in patent US20260007733A1, “Specific Saccharide Fragment for Development of Vibrio Cholerae Vaccines” (priority 2024, published 2026).
# Test system: IgG antibodies in anti-sera immunized with the lipopolysaccharide of the V. cholerae O100 serotype
# Assay: Glycan microarray screening of saccharide fragments with rabbit anti-sera
# Type: binding
# Settings: rabbit sera diluted 1:200; goat anti-rabbit IgG secondary antibodies 1:400; FIG. 9
# Procedure: Step 1: The obtained sugar fragment is dissolved in a 50 mM phosphate solution (pH=8.5), printed onto the microarray using a microarray spotter, and incubated at room temperature and 65% humidity overnight to covalently bind the saccharide fragment to the microarray; and after incubation, the microarray is quenched by treatment with a mixed solution of […] solution (pH=9) at 50° C. for 1 h.
# Step 2: The glycan microarray is probed with diluted rabbit anti-sera and co-incubated to specifically bind IgG antibodies in the anti-sera to the saccharide fragment, and unbound serum antibodies are washed away; and subsequently, fluorescently labeled secondary antibodies (anti-IgG antibodies) are used to bind the IgG antibodies on the microarray and incubated, and unbound secondary antibodies are washed away.
# Synthetic oligosaccharides and LPS were dissolved in a coupling buffer (50 mM sodium phosphate, pH=8.5) for printing onto a “CodeLink” slide (SurModics Co., Ltd.) using an RMA-Arrayer 96 (Rayme China). Then the slide was incubated overnight in a humidifying chamber at 26° C. and 55% humidity. The slide and the microarray were incubated in a quenching buffer ([…] ethanolamine) at 50° C. for 1 h. […]
structure (smiles),measurement,value
CC(=O)NC1C(O)[C@H](NC(C)=O)C(C)O[C@H]1OCN (stereo partly shown) [Compound 10],"antigenicity / recognition by the antibodies (glycan microarray, fluorescence)",cannot be recognized by the antibodies
